Experimental data: ChEMBL document CHEMBL1201861, “Genomics of Drug Sensitity in Cancer screening data, Wellcome Trust Sanger Institute”

Columns and labels:
Assay in all cases: cells
CW-2 = assay type: functional, cell-based, Homo sapiens; details: Homo sapiens, CW-2;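 note: growth inhibition of CW-2 cells, read out by a cell viability assay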
Description: SANGER: Inhibition of human CW-2 cell growth in a cell viability assay.

Calu-6 = assay type: functional, cell-based, Homo sapiens; details: Homo sapiens, Calu-6;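 note: growth of human Calu-6 cells, read out by a cell viability assay, IC50 marking inhibition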
Description: SANGER: Inhibition of human Calu-6 cell growth in a cell viability assay.

EW-11 = assay type: functional, cell-based, Homo sapiens; details: Homo sapiens, EW-11;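 note: growth inhibition of human EW-11 cells, measured with a cell viability assay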
Description: SANGER: Inhibition of human EW-11 cell growth in a cell viability assay.

GB-1 = assay type: functional, cell-based, Homo sapiens; details: Homo sapiens, GB-1;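 note: growth of GB-1 cells judged by a viability assay, IC50 marks the concentration inhibiting growth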
Description: SANGER: Inhibition of human GB-1 cell growth in a cell viability assay.

GCIY = assay type: functional, cell-based, Homo sapiens; details: Homo sapiens, GCIY;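 note: growth inhibition of the human GCIY cell line, read out by a cell viability assay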
Description: SANGER: Inhibition of human GCIY cell growth in a cell viability assay.

GT3TKB = assay type: functional, cell-based, Homo sapiens; details: Homo sapiens, GT3TKB;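 note: growth inhibition of the cell line, read out with a cell viability assay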
Description: SANGER: Inhibition of human GT3TKB cell growth in a cell viability assay.

HDLM-2 = assay type: functional, cell-based, Homo sapiens; details: Homo sapiens, HDLM-2;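 note: cell viability assay measuring suppression of HDLM-2 proliferation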
Description: SANGER: Inhibition of human HDLM-2 cell growth in a cell viability assay.

HOP-62 = assay type: functional, cell-based, Homo sapiens; details: Homo sapiens, HOP-62;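 note: cell growth inhibition determined with a viability assay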
Description: SANGER: Inhibition of human HOP-62 cell growth in a cell viability assay.

HT = assay type: functional, cell-based, Homo sapiens; details: Homo sapiens, HT
Description: SANGER: Inhibition of human HT cell growth in a cell viability assay.

JVM-3 = assay type: functional, cell-based, Homo sapiens; details: Homo sapiens, JVM-3;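 note: growth inhibition of human JVM-3 cells, read out with a cell viability assay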
Description: SANGER: Inhibition of human JVM-3 cell growth in a cell viability assay.

KARPAS-299 = assay type: functional, cell-based, Homo sapiens; details: Homo sapiens, KARPAS-299
Description: SANGER: Inhibition of human KARPAS-299 cell growth in a cell viability assay.

KINGS-1 = assay type: functional, cell-based, Homo sapiens; details: Homo sapiens, KINGS-1;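 note: cell viability assay measuring suppression of KINGS-1 cell growth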
Description: SANGER: Inhibition of human KINGS-1 cell growth in a cell viability assay.

KNS-81-FD = assay type: functional, cell-based, Homo sapiens; details: Homo sapiens, KNS-81-FD;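 note: growth inhibition of KNS-81-FD cells, read out with a cell viability assay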
Description: SANGER: Inhibition of human KNS-81-FD cell growth in a cell viability assay.

KY821 = assay type: functional, cell-based, Homo sapiens; details: Homo sapiens, KY821;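 note: growth inhibition of human KY821 cells, read out by a cell viability assay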
Description: SANGER: Inhibition of human KY821 cell growth in a cell viability assay.

LB1047-RCC = assay type: functional, cell-based, Homo sapiens; details: Homo sapiens, LB1047-RCC;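 note: inhibition of cell growth, determined with a cell viability assay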
Description: SANGER: Inhibition of human LB1047-RCC cell growth in a cell viability assay.

LB2241-RCC = assay type: functional, cell-based, Homo sapiens; details: Homo sapiens, LB2241-RCC;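 note: cell viability assay measuring how strongly the cultured human renal carcinoma line is prevented from growing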
Description: SANGER: Inhibition of human LB2241-RCC cell growth in a cell viability assay.

LB2518-MEL = assay type: functional, cell-based; details: Homo sapiens;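 note: growth inhibition of human LB2518-MEL cells, measured with a cell viability assay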
Description: SANGER: Inhibition of human LB2518-MEL cell growth in a cell viability assay.

LC-2-ad = assay type: functional, cell-based, Homo sapiens; details: Homo sapiens, LC-2-ad;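 note: growth inhibition of human LC-2-ad cells, read out with a cell viability assay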
Description: SANGER: Inhibition of human LC-2-ad cell growth in a cell viability assay.

LS-123 = assay type: functional, cell-based, Homo sapiens; details: Homo sapiens, LS-123
Description: SANGER: Inhibition of human LS-123 cell growth in a cell viability assay.

LU-134-A = assay type: functional, cell-based, Homo sapiens; details: Homo sapiens, LU-134-A
Description: SANGER: Inhibition of human LU-134-A cell growth in a cell viability assay.

MEG-01 = assay type: functional, cell-based, Homo sapiens; details: Homo sapiens, MEG-01;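 note: growth inhibition of MEG-01 cells, read out by a cell viability assay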
Description: SANGER: Inhibition of human MEG-01 cell growth in a cell viability assay.

MHH-NB-11 = assay type: functional, cell-based, Homo sapiens; details: Homo sapiens, MHH-NB-11;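 note: growth inhibition of human MHH-NB-11 cells, read out by a cell viability assay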
Description: SANGER: Inhibition of human MHH-NB-11 cell growth in a cell viability assay.

MHH-PREB-1 = assay type: functional, cell-based, Homo sapiens; details: Homo sapiens, MHH-PREB-1;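 note: cell viability assay measuring inhibition of proliferation of human MHH-PREB-1 cells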
Description: SANGER: Inhibition of human MHH-PREB-1 cell growth in a cell viability assay.

MS-1 = assay type: functional, cell-based, Homo sapiens; details: Homo sapiens, MS-1;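 note: growth inhibition of MS-1 cells, read out by cell viability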
Description: SANGER: Inhibition of human MS-1 cell growth in a cell viability assay.

MV4-11 = assay type: functional, cell-based, Homo sapiens, MV-4-11; details: Homo sapiens, MV4-11;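 note: cell viability readout measuring growth inhibition of human MV-4-11 cells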
Description: SANGER: Inhibition of human MV-4-11 cell growth in a cell viability assay.

NB6 = assay type: functional, cell-based, Homo sapiens; details: Homo sapiens, NB6;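 note: growth inhibition of NB6 cells, read out by a cell viability assay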
Description: SANGER: Inhibition of human NB6 cell growth in a cell viability assay.

NCI-H1355 = assay type: functional, cell-based, Homo sapiens; details: Homo sapiens, NCI-H1355;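 note: growth inhibition of human NCI-H1355 cells, read out by a cell viability assay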
Description: SANGER: Inhibition of human NCI-H1355 cell growth in a cell viability assay.

NCI-H1395 = assay type: functional, cell-based, Homo sapiens; details: Homo sapiens, NCI-H1395;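 note: cell viability assay read-out quantifying reduced proliferation of human NCI-H1395 cells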
Description: SANGER: Inhibition of human NCI-H1395 cell growth in a cell viability assay.

NCI-H209 = assay type: functional, cell-based, Homo sapiens; details: Homo sapiens, NCI-H209;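 note: growth inhibition of human NCI-H209 cells, measured by a cell viability assay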
Description: SANGER: Inhibition of human NCI-H209 cell growth in a cell viability assay.

NCI-H747 = assay type: functional, cell-based, Homo sapiens; details: Homo sapiens, NCI-H747;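 note: growth inhibition of human NCI-H747 cells, read out by a cell viability assay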
Description: SANGER: Inhibition of human NCI-H747 cell growth in a cell viability assay.

NTERA-2-cl-D1 = assay type: functional, cell-based, Homo sapiens; details: Homo sapiens, NTERA-2-cl-D1;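 note: inhibition of cell growth, measured with a cell viability assay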
Description: SANGER: Inhibition of human NTERA-S-cl-D1 cell growth in a cell viability assay.

OCI-AML2 = assay type: functional, cell-based, Homo sapiens; details: Homo sapiens, OCI-AML2;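 note: growth inhibition of OCI-AML2 cells, read out with a cell viability assay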
Description: SANGER: Inhibition of human OCI-AML2 cell growth in a cell viability assay.

OCUB-M = assay type: functional, cell-based; details: Homo sapiens;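 note: growth inhibition of the cancer cell line, read out through a cell viability assay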
Description: SANGER: Inhibition of human OCUB-M cell growth in a cell viability assay.

OS-RC-2 = assay type: functional, cell-based, Homo sapiens; details: Homo sapiens, OS-RC-2;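 note: growth inhibition of human OS-RC-2 cells, measured by a cell viability assay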
Description: SANGER: Inhibition of human OS-RC-2 cell growth in a cell viability assay.

SK-MEL-2 = assay type: functional, cell-based, Homo sapiens; details: Homo sapiens, SK-MEL-2;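 note: growth inhibition of human SK-MEL-2 cells measured with a cell viability assay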
Description: SANGER: Inhibition of human SK-MEL-2 cell growth in a cell viability assay.

SNB-75 = assay type: functional, cell-based, Homo sapiens; details: Homo sapiens, SNB-75;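 note: cell viability assay measuring growth inhibition of human SNB-75 cells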
Description: SANGER: Inhibition of human SNB75 cell growth in a cell viability assay.

SW 954 = assay type: functional, cell-based, Homo sapiens; details: Homo sapiens, SW 954;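 note: growth inhibition of SW954 human cancer cells, read out as cell viability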
Description: SANGER: Inhibition of human SW954 cell growth in a cell viability assay.

8-MG-BA = assay type: functional, cell-based, Homo sapiens; details: Homo sapiens, 8-MG-BA;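 note: growth inhibition of 8-MG-BA cells, read out with a cell viability assay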
Description: SANGER: Inhibition of human 8-MG-BA cell growth in a cell viability assay.

A3-KAW = assay type: functional, cell-based, Homo sapiens; details: Homo sapiens, A3-KAW;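 note: growth inhibition of human A3-KAW cells, read out with a cell viability assay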
Description: SANGER: Inhibition of human A3-KAW cell growth in a cell viability assay.

A4-Fuk = assay type: functional, cell-based, Homo sapiens; details: Homo sapiens, A4-Fuk;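 note: growth inhibition of A4-Fuk cells, read out by a cell viability assay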
Description: SANGER: Inhibition of human A4-Fuk cell growth in a cell viability assay.

BB30-HNC = assay type: functional, cell-based, Homo sapiens; details: Homo sapiens, BB30-HNC;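 note: growth inhibition of the cultured cell line, read out by a cell viability assay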
Description: SANGER: Inhibition of human BB30-HNC cell growth in a cell viability assay.

BB65-RCC = assay type: functional, cell-based, Homo sapiens; details: Homo sapiens, BB65-RCC;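 note: growth inhibition of the cell line, measured with a cell viability assay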
Description: SANGER: Inhibition of human BB65-RCC cell growth in a cell viability assay.

TE-10 = assay type: functional, cell-based, Homo sapiens; details: Homo sapiens, TE-10;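 note: growth inhibition of TE-10 cells, measured by a cell viability assay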
Description: SANGER: Inhibition of human TE-10 cell growth in a cell viability assay.

TE-12 = assay type: functional, cell-based, Homo sapiens; details: Homo sapiens, TE-12;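 note: growth inhibition of TE-12 cells, read out by a cell viability assay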
Description: SANGER: Inhibition of human TE-12 cell growth in a cell viability assay.

no-11 = assay type: functional, cell-based, Homo sapiens; details: Homo sapiens;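 note: growth inhibition of human NO-11 cells, read out with a cell viability assay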
Description: SANGER: Inhibition of human no-11 cell growth in a cell viability assay.

COLO-668 = assay type: functional, cell-based, Homo sapiens; details: Homo sapiens, COLO-668
Description: SANGER: Inhibition of human COLO-668 cell growth in a cell viability assay.

NC(=O)c1cccc(-c2cc(Nc3ccc(OC(F)(F)F)cc3)ncn2)c1
IC50 (CW-2): > 1280 nM
IC50 (Calu-6): > 1280 nM
IC50 (EW-11): > 1280 nM
IC50 (GB-1): > 1280 nM
IC50 (GCIY): > 1280 nM
IC50 (GT3TKB): > 1280 nM
IC50 (HDLM-2): > 1280 nM
IC50 (HOP-62): > 1280 nM
IC50 (HT): > 1280 nM
IC50 (JVM-3): > 1280 nM
IC50 (KARPAS-299): > 1280 nM
IC50 (KINGS-1): > 1280 nM
IC50 (KNS-81-FD): > 1280 nM
IC50 (KY821): > 1280 nM
IC50 (LB1047-RCC): > 1280 nM
IC50 (LB2241-RCC): > 1280 nM
IC50 (LB2518-MEL): > 1280 nM
IC50 (LC-2-ad): > 1280 nM
IC50 (LS-123): > 1280 nM
IC50 (LU-134-A): > 1280 nM
IC50 (MEG-01): 503 nM
IC50 (MHH-NB-11): > 1280 nM
IC50 (MHH-PREB-1): > 1280 nM
IC50 (MS-1): > 1280 nM
IC50 (MV4-11): > 1280 nM
IC50 (NB6): > 1280 nM
IC50 (NCI-H1355): > 1280 nM
IC50 (NCI-H1395): > 1280 nM
IC50 (NCI-H209): > 1280 nM
IC50 (NCI-H747): > 1280 nM
IC50 (NTERA-2-cl-D1): > 1280 nM
IC50 (OCI-AML2): > 1280 nM
IC50 (OCUB-M): > 1280 nM
IC50 (OS-RC-2): > 1280 nM
IC50 (SK-MEL-2): > 1280 nM
IC50 (SNB-75): > 1280 nM
IC50 (SW 954): > 1280 nM
IC50 (8-MG-BA): > 1280 nM
IC50 (A3-KAW): > 1280 nM
IC50 (A4-Fuk): > 1280 nM
IC50 (BB30-HNC): > 1280 nM
IC50 (BB65-RCC): > 1280 nM
IC50 (TE-10): > 1280 nM
IC50 (TE-12): > 1280 nM
IC50 (no-11): > 1280 nM
IC50 (COLO-668): > 1280 nM

CO[C@@H]1[C@H](N(C)C(=O)c2ccccc2)C[C@H]2O[C@]1(C)n1c3ccccc3c3c4c(c5c6ccccc6n2c5c31)C(=O)NC4 [MIDOSTAURIN]
IC50 (GT3TKB): 380 nM
IC50 (HOP-62): 181 nM
IC50 (KARPAS-299): > 512 nM
IC50 (NCI-H747): > 512 nM
IC50 (NTERA-2-cl-D1): 209 nM
IC50 (OCI-AML2): > 512 nM
IC50 (BB30-HNC): 324 nM
IC50 (no-11): > 512 nM
